Results as given in article PMC12371494, “Discovery of YTHDF2 Ligands by Fragment-Based Design” (ACS Bio & Med Chem Au, 2025).
Read-outs that look alike come from different tables or passages of the source.

Target: T1, GST-YTHDF2 (Homo sapiens, UniProt Q9Y5A9)
T1 construct: made in house
T1 sequence (Q9Y5A9 1-579): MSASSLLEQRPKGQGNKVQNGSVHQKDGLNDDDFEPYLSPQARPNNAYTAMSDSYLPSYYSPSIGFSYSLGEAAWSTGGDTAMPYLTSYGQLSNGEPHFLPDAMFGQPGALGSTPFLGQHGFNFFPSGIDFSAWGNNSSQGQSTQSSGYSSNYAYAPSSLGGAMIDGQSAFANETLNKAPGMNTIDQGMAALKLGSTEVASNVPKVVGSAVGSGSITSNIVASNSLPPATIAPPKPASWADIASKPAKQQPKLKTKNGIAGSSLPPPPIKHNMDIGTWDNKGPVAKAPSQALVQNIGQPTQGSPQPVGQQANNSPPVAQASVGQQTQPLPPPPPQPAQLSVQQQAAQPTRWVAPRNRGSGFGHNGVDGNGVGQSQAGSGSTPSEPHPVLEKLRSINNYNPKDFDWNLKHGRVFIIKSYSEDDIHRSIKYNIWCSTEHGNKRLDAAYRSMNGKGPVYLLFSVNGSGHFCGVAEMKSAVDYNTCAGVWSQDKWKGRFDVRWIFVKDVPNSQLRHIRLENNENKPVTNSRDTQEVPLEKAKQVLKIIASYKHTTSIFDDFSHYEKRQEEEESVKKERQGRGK
Assay: HTRF-based binding assay, competition with m6A-oligoRNA, DF2
Details: for Residual signal at 1 mM concentration / % at 100 µM: HTRF; for Residual signal at 1 mM concentration: 1 mM compound, relative to control, average of two technical replicates, * = interference with the assay; for LE (ligand efficiency, DF2): LE = -RT ln IC50/HAC from HTRF IC50; for % at 100 µM: 100 µM compound

[1] = dose-response, competitor m6A-oligoRNA, read-out: DF2 IC50 (HTRF assay)

SMILES | Residual signal at 1 mM concentration | other results
O=c1cn[nH]c(=S)[nH]1 [Compound 13] | 5% | LE (ligand efficiency, DF2): 0.73 kcal/(mol HAC); IC50 [1]: 53 µM
Cc1cc(=O)c2sccc2[nH]1 [Compound S22] | 89% | 
C=CCc1cccc(C=Nc2c[nH]c(=O)[nH]c2=O)c1O [Compound S18] | 79% | 
COc1cc2[nH]c(=O)[nH]c(=O)c2cc1OC [Compound S12] | 60% | 
CNc1ncccc1C(N)=O [Compound 5] | 88% | 
FC(F)(F)c1cc(-c2ccc3ccccc3c2)n[nH]1 [Compound S31] | > 90% | 
Cc1nc(O)c(C=Nc2ccc(Cl)cc2)c(O)n1 [Compound S8] | 21% | 
O=c1[nH]c(=S)[nH]c2n[nH]cc12 [Compound 15] | 17% | LE (ligand efficiency, DF2): 0.51 kcal/(mol HAC); IC50 [1]: 86 µM
Cc1n[nH]c(=S)[nH]c1=O [Compound S53] | 38% | 
O=C(CCc1n[nH]c(=S)[nH]c1=O)Nc1ccccc1 [Compound S55] |  | IC50 [1]: 190 µM
CNc1cc(=O)[nH]c(=O)[nH]1 [Compound 4] | 18% | LE (ligand efficiency, DF2): 0.49 kcal/(mol HAC); IC50 [1]: 250 µM
Nn1c(=S)[nH]c2scc(-c3ccccc3)c2c1=O [Compound S68] | 36% | % at 100 µM: 32%
CCOc1ccc(C=C2C(=O)NC(=S)NC2=O)cc1Cl [Compound S52] | 12% | LE (ligand efficiency, DF2): 0.29 kcal/(mol HAC); IC50 [1]: 55 µM
Cc1nc(O)c2sccc2n1 [Compound S27] | > 90% | 
Cc1cc(=O)c(OCc2ccc(F)cc2)c[nH]1 [Compound S1] | 31% | IC50 [1]: 310 µM
NCCC1C(=O)NC(=S)NC1=O [Compound S42] |  | IC50 [1]: 330 µM
CC1(C)C(=O)NC(=S)NC1=O [Compound S43] | 11% | 
Cc1cc(O)c(OCC(=O)N=c2[nH]cc(C)s2)cn1 [Compound S6] | 60% | 
O=C1CC(=O)NC(=S)N1 [Compound S44] | 79% | 
COc1ccc(C=C2C(=O)NC(=S)NC2=O)cc1C [Compound 10] | 48% | IC50: 28 µM; LE (ligand efficiency, DF2): 0.33 kcal/(mol HAC)
O=c1[nH]c(=S)[nH]c2nc[nH]c12 [Compound 16] | 2% | LE (ligand efficiency, DF2): 0.56 kcal/(mol HAC); IC50 [1]: 30 µM
CCc1cc(NC(=O)c2ccc(C)nc2)[nH]n1 [Compound S34] | > 90% | 
Cc1cc2c(=O)n(C3CC3)c(=S)[nH]c2s1 [Compound S66] | 23% | % at 100 µM: 25%
CCSc1nnc(NC(C)=O)s1 [Compound S7] | 60% | 

SMILES | Residual signal at 1 mM concentration | other results
CN(NC=C1C(=O)NC(=S)NC1=O)c1ccccc1 [Compound S49] | 54% | 
O=c1[nH]c(=S)[nH]c2sc3c(c12)CCC3 [Compound S59] | 35% | IC50 [1]: 53 µM
COc1cccc2c1OCc1sc3[nH]c(=S)[nH]c(=O)c3c1-2 [Compound S73] | 64% | % at 100 µM: 22%
OCCNc1ccc(Cl)nn1 [Compound S23] | > 90% | 
O=c1[nH]c(=S)[nH]c2cnccc12 [Compound S62] |  | IC50 [1]: 170 µM
CN(C)c1ccc(C=C2C(=O)NC(=S)NC2=O)cc1 [Compound 7] |  | IC50: 21 µM; LE (ligand efficiency, DF2): 0.34 kcal/(mol HAC)
CC(O)c1nc2cc(-c3cc(F)cc(Cl)c3)ccc2[nH]1 (centres unmarked) [Compound S25] | > 90% | 
Cc1cc(O)c2[nH]ncc2n1 [Compound S13] | 62% | 
O=c1[nH]c(=S)[nH]c2[nH]ccc12 [Compound S63] | 28% | % at 100 µM: 49%
CC=CC=C1C(=O)NC(=O)NC1=O [Compound 11] | 30% | IC50: 29 µM; LE (ligand efficiency, DF2): 0.48 kcal/(mol HAC)
Cc1ccccc1NN=C1C(=O)NC(=S)NC1=O [Compound 2] | 12% | IC50: 170 µM; LE (ligand efficiency, DF2): 0.29 kcal/(mol HAC)
Cc1nnc(N)n(N)c1=O [Compound S32] | > 90% | 
CNc1ncnc2[nH]nc(C)c12 [Compound S57] | 88% | 
Nn1c(=S)[nH]c2sccc2c1=O [Compound S67] | 23% | % at 100 µM: 40%
COC(=O)CNC(=O)COc1c[nH]c(C)cc1=O [Compound S15] | 75% | 
Cc1[nH]nc2ncnc(N)c12 [Compound 6] | 80% | 
CCc1cc2c(=O)[nH]c(SC)nc2s1 [Compound S65] |  | % at 100 µM: 68%
CN(C)c1ccc(C=C2C(=O)NC(=S)NC2=O)o1 [Compound S51] | 35% | 
O=C(Nc1nnc[nH]1)C1CC1 [Compound S24] | > 90% | 
Cc1cc(O)nc(NC=C2C(=O)NC(=S)NC2=O)n1 [Compound S50] | 9% | IC50 [1]: 57 µM
COc1ccc(NC=C2C(=O)NC(=O)NC2=O)cc1 [Compound 12] |  | IC50: 40 µM; LE (ligand efficiency, DF2): 0.32 kcal/(mol HAC)
CN(C)c1cc(=O)[nH]c(=O)[nH]1 [Compound S19] | 85% | 
CC(=O)N=c1[nH]nc(SCC(=O)NC2CCCCC2)s1 [Compound S10] | 50% | 
O=C(Nc1nccs1)C(F)(F)F [Compound S20] | 87% | 

SMILES | Residual signal at 1 mM concentration | other results
O=C1NC(=S)NC(=O)C1=NNc1cccc(C(=O)O)c1 [Compound 8] | 5% | IC50: 6 µM; LE (ligand efficiency, DF2): 0.36 kcal/(mol HAC)
COc1cccc(-c2ccc3c(N)n[nH]c3n2)c1 [Compound S30] | > 90% | 
N#Cc1c(C2CC2)n[nH]c1N [Compound S37] | > 90% | 
Oc1ccnc(OC(F)F)c1 [Compound S21] | 87% | 
CC(=O)Nc1nnc(C=Cc2cccc([N+](=O)[O-])c2)s1 (mixture of isomers) [Compound S17] | 77% | 
O=c1[nH]c(=O)c2cn[nH]c2[nH]1 [Compound S58] | 47% | 
CN1C(=O)CC(=O)NC1=S [Compound S45] | 75% | 
CCOC(=O)c1noc(C)n1 [Compound S28] | > 90% | 
O=c1[nH]c(=S)[nH]c2ccsc12 [Compound S64] |  | % at 100 µM: 36%
O=c1cc(O)cc(C(F)(F)F)[nH]1 [Compound S33] | > 90% | 
COc1cnc(Br)cc1O [Compound S29] | > 90% | 
Cc1n[nH]c(N)c1C#N [Compound S36] | > 90% | 
NC(=O)c1cccnc1NCC1CC1 [Compound S39] | > 90% | 
Cn1cccc1C=C1C(=O)NC(=S)NC1=O [Compound S46] | 13% | 
Cc1cccc(NC=C2C(=O)NC(=S)NC2=O)n1 [Compound 9] |  | IC50: 30 µM; LE (ligand efficiency, DF2): 0.34 kcal/(mol HAC)
CCNc1cc(=O)[nH]c(=O)[nH]1 [Compound S56] | 51% | 
CNC=C1C(=O)NC(=S)NC1=O [Compound S47] |  | IC50 [1]: 91 µM
CCN1CCc2c(sc3[nH]c(=S)n(N)c(=O)c23)C1 [Compound S69] |  | IC50 [1]: 23 µM
CC1CCc2c(sc3[nH]c(=S)[nH]c(=O)c23)C1 (centres unmarked) [Compound S60] | 24% | IC50 [1]: 80 µM
CCCc1nnc(NC(C)=O)s1 [Compound S26] | > 90% | 
O=c1[nH]c(=S)[nH]c2scc(-c3cccs3)c12 [Compound S70] | 49% | % at 100 µM: 45%
O=c1[nH]c(=O)c2ccsc2[nH]1 [Compound S61] |  | IC50 [1]: 290 µM
CC=CC=C1C(=O)NC(=S)NC1=O [Compound 1] | 26% | IC50: 19 µM; LE (ligand efficiency, DF2): 0.50 kcal/(mol HAC)
